{"source": "patent US20120201802A1", "about": "“METHOD FOR PRODUCING REDUCED COENZYME Q10, METHOD FOR STABILIZING SAME, AND COMPOSITION COMPRISING SAME” (Keneka Corporation, priority 2009, published 2012)", "key": {"[1]": {"assay": "Reduction of oxidized coenzyme Q10 in limonene (Example 2, Comparative Example 2)", "conditions": "after reaction, oxidized CoQ10 0.1 g + plant extract 1.0 g or compound 0.69 mmol, 85° C., 16 hr, nitrogen atmosphere", "description": "While the present invention is explained in more detail in the following by referring to Examples, the present invention is not limited to those Examples alone. Moreover, the purity of reduced coenzyme Q10, the weight ratio of reduced coenzyme Q10/oxidized coenzyme Q10, and the like in the Examples were measured by the following HPLC analysis. […] To conveniently indicate the weight ratio of reduced coenzyme Q10 and oxidized coenzyme Q10 in the present Example, the ratio of reduced coenzyme Q10 to the total amount of coenzyme Q10 (total amount of oxidized coenzyme Q10 and reduced coenzyme Q10) is shown in percentage as a “weight ratio of reduced coenzyme Q10”. For example, “the weight ratio of reduced coenzyme Q10 is 20%” means that the weight ratio of reduced coenzyme Q10 and oxidized coenzyme Q10 is 20/80. • (HPLC analysis conditions) • column; SYMMETRY C18 (manufactured by Waters) 250 mm (length) 4.6 mm (inner diameter), • mobile phase; C2H5OH:CH3OH=4:3 (v:v), • detection wavelength; 210 nm, • flow rate; 1 ml/min, • retention time of reduced coenzyme Q10; 9.1 min, • retention time of oxidized coenzyme Q10; 13.3 min. […]"}, "[2]": {"assay": "Reduction of oxidized coenzyme Q10 in Span 80/glycerol/Tween 80/MCT mixture (Example 3, Comparative Example 3)", "conditions": "after reaction, oxidized CoQ10 0.1 g + plant extract 1.0 g or compound 0.69 mmol, 80° C., 16 hr, nitrogen atmosphere", "description": "(§1) While the present invention is explained in more detail in the following by referring to Examples, the present invention is not limited to those Examples alone. Moreover, the purity of reduced coenzyme Q10, the weight ratio of reduced coenzyme Q10/oxidized coenzyme Q10, and the like in the Examples were measured by the following HPLC analysis. […] To conveniently indicate the weight ratio of reduced coenzyme Q10 and oxidized coenzyme Q10 in the present Example, the ratio of reduced coenzyme Q10 to the total amount of coenzyme Q10 (total amount of oxidized coenzyme Q10 and reduced coenzyme Q10) is shown in percentage as a “weight ratio of reduced coenzyme Q10”. For example, “the weight ratio of reduced coenzyme Q10 is 20%” means that the weight ratio of reduced coenzyme Q10 and oxidized coenzyme Q10 is 20/80. • (HPLC analysis conditions) • column; SYMMETRY C18 (manufactured by Waters) 250 mm (length) 4.6 mm (inner diameter), • mobile phase; C2H5OH:CH3OH=4:3 (v:v), • detection wavelength; 210 nm, • flow rate; 1 ml/min, • retention time of reduced coenzyme Q10; 9.1 min, • retention time of oxidized coenzyme Q10; 13.3 min.\nOxidized coenzyme Q10 crystal (0.1 g) and a component derived from a naturally-occurring substance described in Table 3 (plant extract, 1.0 g, 10-fold weight) or a compound (0.69 mmol) were respectively added to a mixture of Span 80 (0.12 g), glycerol (0.09 g), Tween 80 (1.49 g) and MCT (0.43 g), and the mixture was stirred at 80° C. for 16 hr under a nitrogen atmosphere."}, "[3]": {"assay": "Reduction of oxidized coenzyme Q10 in 99% ethanol (Example 1, Comparative Example 1)", "conditions": "after reaction, oxidized CoQ10 0.1 g + plant extract 1.0 g (10-fold weight) or compound 0.69 mmol, 78° C., 16 hr, nitrogen atmosphere", "description": "as §1\nOxidized coenzyme Q10 crystal (0.1 g) and a component derived from a naturally-occurring substance (plant extract, 1.0 g, 10-fold weight) described in Table 1 were respectively added to 99% ethanol (15 g), and the mixture was stirred at 78° C. for 16 hr under a nitrogen atmosphere.\nOxidized coenzyme Q10 crystal (0.1 g, 0.12 mmol) and the compound described in Table 1 (0.69 mmol) were respectively added to 99% ethanol (15 g), and the mixture was stirred at 78° C. for 16 hr under a nitrogen atmosphere."}}, "data": [{"compound": "O=C1O[C@H]([C@@H](O)CO)C([O-])=C1O.[Na+]", "note": "[L-sodium ascorbate]", "values": [{"measurement": "weight ratio of reduced coenzyme Q10", "setting": "[1]", "value": 1, "unit": "%"}]}, {"compound": "Cc1c(C)c2c(c(C)c1O)CC[C@@](C)(CCC[C@H](C)CCC[C@H](C)CCCC(C)C)O2", "note": "[α-tocopherol]", "values": [{"measurement": "weight ratio of reduced coenzyme Q10", "setting": "[2]", "value": 0, "unit": "%"}]}, {"compound": "C[N+](C)(C)CC(O)CC(=O)[O-]", "note": "(stereo not shown) [carnitine]", "values": [{"measurement": "weight ratio of reduced coenzyme Q10", "setting": "[2]", "value": 0, "unit": "%"}, {"measurement": "weight ratio of reduced coenzyme Q10", "setting": "[3]", "value": 0, "unit": "%"}]}, {"compound": "NC(=O)C1=CN([C@@H]2O[C@H](COP(=O)(O)OP(=O)(O)OC[C@H]3O[C@@H](n4cnc5c(N)ncnc54)[C@H](O)[C@@H]3O)[C@@H](O)[C@H]2O)C=CC1", "note": "[NADH]", "values": [{"measurement": "weight ratio of reduced coenzyme Q10", "setting": "[2]", "value": 0, "unit": "%"}, {"measurement": "weight ratio of reduced coenzyme Q10", "setting": "[3]", "value": 2, "unit": "%"}]}, {"compound": "CC1=C(/C=C/C(C)=C/C=C/C(C)=C/C=O)C(C)(C)CCC1", "note": "[retinal]", "values": [{"measurement": "weight ratio of reduced coenzyme Q10", "setting": "[2]", "value": 3, "unit": "%"}, {"measurement": "weight ratio of reduced coenzyme Q10", "setting": "[3]", "value": 4, "unit": "%"}]}, {"compound": "retinol acetate", "values": [{"measurement": "weight ratio of reduced coenzyme Q10", "setting": "[3]", "value": 4, "unit": "%"}]}, {"compound": "O=C(O)CCCC[C@@H](S)CCS", "note": "[R-dihydrolipoic acid]", "values": [{"measurement": "weight ratio of reduced coenzyme Q10", "setting": "[1]", "value": 1, "unit": "%"}]}]}
